≈ marks a conversion by molar mass, not a printed value. Calls of active or inactive are those of the source. The calls are words filed in the database; no cut-off is given here.
What was measured:
[1] = test system: Mycobacterium tuberculosis; test: Antitubercular activity against Mycobacterium tuberculosis H37Rv at 10 ug/ml measured twice a week for 3 weeks by Ziehl-Neelsen staining; type: functional, organism-based
[2] = test system: HeLa; test: Cytotoxicity against Homo sapiens (human) HeLa cells assessed as cell mortality after 24 to 72 hr by inverted microscopic analysis; type: functional
[3] = test system: Mycobacterium tuberculosis; test: Antitubercular activity against Mycobacterium tuberculosis H37Rv at 25 ug/ml measured twice a week for 3 weeks by Ziehl-Neelsen staining; type: functional, organism-based
[4] = test system: Mycobacterium tuberculosis; test: Antitubercular activity against Mycobacterium tuberculosis H37Rv at 5 ug/ml measured twice a week for 3 weeks by Ziehl-Neelsen staining; type: functional, organism-based
[5] = species: Mus musculus; test: Toxicity in Mus musculus (mouse) assessed as irritation; type: organism-based; conditions: in vivo
[6] = test system: Mycobacterium tuberculosis; test: Antitubercular activity against Mycobacterium tuberculosis H37Rv measured twice a week for 3 weeks by Ziehl-Neelsen staining; type: functional; conditions: 504 h

Q: Which results are given for `COc1cc2cc(C3SC(NC(C)=O)=NN3C(C)=O)c(Cl)nc2cc1OC` (stereo not drawn)?
A: Activity [1]: Active; Activity [2]: 10 µg/mL; Activity [3]: Active; Activity [4]: inactive; Activity [5]: Non-toxic

Q: For `CC(=O)NC1=NN(C(C)=O)C(c2cc3ccc(C)cc3nc2Cl)S1` (stereo not drawn), which Activity [1] is on record?
A: Its Activity is “Active”.

Q: And the Activity [2]?
A: The Activity was 20 µg/mL.

Q: And the Activity [3]?
A: The Activity was “Active”.

Q: What about the Activity [4] of the same compound?
A: Its Activity is “inactive”.

Q: What about the Activity [5] of the same compound?
A: The Activity was “Non-toxic”.

Q: With `CC(=O)NC1=NN(C(C)=O)C(c2cc3cc(Br)ccc3nc2Cl)S1` (stereo not drawn) as the compound, how does the Activity [1] read?
A: The Activity was “Active”.

Q: What about the Activity [2] of the same compound?
A: The Activity was 20 µg/mL.

Q: What about the Activity [3] of the same compound?
A: The Activity was “Active”.

Q: What about the Activity [4] of the same compound?
A: The Activity was “inactive”.

Q: And the Activity [5]?
A: Its Activity is “Non-toxic”.

Q: For `CC(=O)NC1=NN(C(C)=O)C(c2cc3ccc(Cl)cc3nc2Cl)S1` (stereo not drawn), which Activity [1] is on record?
A: The Activity was “Active”.

Q: And the Activity [2]?
A: Its Activity is 20 µg/mL.

Q: And the Activity [3]?
A: Its Activity is “Active”.

Q: And the Activity [4]?
A: Its Activity is “inactive”.

Q: What about the Activity [5] of the same compound?
A: The Activity was “Non-toxic”.

Q: Which results are given for `COc1cccc2cc(C3SC(NC(C)=O)=NN3C(C)=O)c(Cl)nc12` (stereo not drawn)?
A: Activity [1]: Active; Activity [2]: 15 µg/mL; Activity [3]: Active; MIC [6]: 5 µg/mL (≈ 13.2 µM); Activity [4]: inactive; Activity [5]: Non-toxic

Q: For `CC(=O)NC1=NN(C(C)=O)C(c2cc3cc(C)ccc3nc2Cl)S1` (stereo not drawn), which Activity [1] is on record?
A: The Activity was “Active”.

Q: What about the Activity [2] of the same compound?
A: The Activity was 10 µg/mL.

Q: And the Activity [3]?
A: The Activity was “Active”.

Q: What about the Activity [4] of the same compound?
A: The Activity was “inactive”.

Q: What about the Activity [5] of the same compound?
A: The Activity was “Non-toxic”.

Q: What does the source list for `COc1ccc2cc(C3SC(NC(C)=O)=NN3C(C)=O)c(Cl)nc2c1` (stereo not drawn)?
A: Activity [1]: Active; Activity [2]: 15 µg/mL; Activity [3]: Active; Activity [4]: inactive; Activity [5]: Non-toxic

Q: How did the Activity [1] turn out when `CC(=O)NC1=NN(C(C)=O)C(c2cc3cccc(C)c3nc2Cl)S1` (stereo not drawn) was run?
A: The Activity was “Active”.

Q: And the Activity [2]?
A: Its Activity is 25 µg/mL.

Q: And the Activity [3]?
A: Its Activity is “Active”.

Q: What about the MIC [6] of the same compound?
A: Its MIC is 5 µg/mL (≈ 13.8 µM).

Q: What about the Activity [4] of the same compound?
A: The Activity was “inactive”.

Q: What about the Activity [5] of the same compound?
A: The Activity was “Non-toxic”.

Q: For `CN[C@@H]1[C@H](O[C@H]2[C@H](O[C@H]3[C@H](O)[C@@H](O)[C@H](N=C(N)N)[C@@H](O)[C@@H]3N=C(N)N)O[C@@H](C)[C@]2(O)C=O)O[C@@H](CO)[C@H](O)[C@H]1O` [STREPTOMYCIN], which MIC [6] is on record?
A: Its MIC is 10 µg/mL (≈ 17.2 µM).

Q: Which results are given for `CC(=O)NC1=NN(C(C)=O)C(c2cc3ccccc3nc2Cl)S1` (stereo not drawn)?
A: Activity [1]: Active; Activity [2]: 15 µg/mL; Activity [3]: Active; Activity [4]: inactive; Activity [5]: Non-toxic

Q: How did the Activity [1] turn out when `COc1ccc2nc(Cl)c(C3SC(NC(C)=O)=NN3C(C)=O)cc2c1` (stereo not drawn) was run?
A: Its Activity is “Active”.

Q: And the Activity [2]?
A: Its Activity is 10 µg/mL.

Q: And the Activity [3]?
A: Its Activity is “Active”.

Q: And the Activity [4]?
A: The Activity was “inactive”.

Q: What about the Activity [5] of the same compound?
A: The Activity was “Non-toxic”.
